Experimental findings from PubChem BioAssay (NCI) are described below.

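Values below derive from 48-hour exposures of cells grown in 96-well plates, with endpoints linearly interpolated between the two concentrations bracketing the appropriate inhibition level. GI50: concentration for 50% inhibition of growth. TGI denotes the concentration required for complete inhibition of growth.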

Among the test systems are UACC-257 melanoma; OVCAR-5 ovarian; SK-OV-3 ovarian; SK-MEL-28 melanoma; MCF7 breast; MDA-MB-231 breast; KM12 colon; SN12C renal; K-562 leukemia; SK-MEL-2 melanoma; HCT-116 colon; NCI/ADR-RES ovarian; OVCAR-3 ovarian.
Common to all, as to assay: NCI anticancer screen, dose series, 48 h

Take `CC(CNc1nc(Nc2ccc(Cl)c(Cl)c2)nc(C(Cl)(Cl)Cl)n1)N(C)C` (centres undefined): the GI50 with UACC-257 melanoma was 1.75 µM; with OVCAR-5 ovarian, 1.61 µM; in the assay on SK-OV-3 ovarian, 1.6 µM; in the assay on SK-MEL-28 melanoma, 1.83 µM; in the assay on MCF7 breast, 1.7 µM; with MDA-MB-231 breast, 0.307 µM. In addition, the GI50 with KM12 colon was 1.7 µM. Also, the TGI came out at 3.32 µM with UACC-257 melanoma; 3.2 µM with OVCAR-5 ovarian; 3.18 µM in the assay on SK-OV-3 ovarian; 3.29 µM in the assay on SK-MEL-28 melanoma; 3.16 µM in the assay with MCF7 breast; 1.42 µM with MDA-MB-231 breast. This compound registered a TGI in the assay on KM12 colon of 3.14 µM.
In the case of `CC1CC(c2ccc([N+](=O)[O-])cc2)=Nc2ccccc2S1=O` (centres undefined), the TGI is greater than 100 µM in the assay with SN12C renal; 42.1 µM in the assay on UACC-257 melanoma; 70 µM in the assay on OVCAR-5 ovarian; 75 µM in the assay with K-562 leukemia; 64.9 µM in the assay with SK-OV-3 ovarian; greater than 100 µM in the assay with SK-MEL-2 melanoma. Besides, the results for the TGI in the assay with SK-MEL-28 melanoma, in the assay on HCT-116 colon and in the assay on KM12 colon were 43.6 µM, 4.72 µM and 26.7 µM, respectively.
Turning to `C/C=C1/C(=O)O[C@]23C=C[C@@H]4C(C(=O)OC)=CO[C@H](O[C@@H]12)[C@@H]43`, the TGI in the assay on SN12C renal was 4.88 µM; in the assay on NCI/ADR-RES ovarian it was 6.37 µM; with UACC-257 melanoma it was 2.31 µM; in the assay on OVCAR-5 ovarian it was 7.69 µM; in the assay on K-562 leukemia, 7.93 µM; in the assay on SK-OV-3 ovarian, 9.75 µM. The TGI was found to be 3.76 µM with SK-MEL-2 melanoma; 7.63 µM in the assay on SK-MEL-28 melanoma; 3.76 µM in the assay on MCF7 breast; 3.95 µM in the assay with OVCAR-3 ovarian; 1.97 µM with HCT-116 colon; 6.12 µM in the assay with KM12 colon.
Regarding `CCc1ncc(C(C)(O)c2ccccc2)n1Cc1ccccc1` (centres undefined), the TGI was 60.6 µM in the assay on SN12C renal; greater than 100 µM in the assay on NCI/ADR-RES ovarian; greater than 100 µM in the assay on UACC-257 melanoma; greater than 100 µM in the assay with OVCAR-5 ovarian; greater than 100 µM with K-562 leukemia; greater than 100 µM in the assay on SK-OV-3 ovarian. The TGI is greater than 100 µM in the assay on SK-MEL-2 melanoma; greater than 100 µM in the assay on SK-MEL-28 melanoma; greater than 100 µM with MCF7 breast; 96.3 µM in the assay with MDA-MB-231 breast; greater than 100 µM in the assay on OVCAR-3 ovarian; 11 µM in the assay on HCT-116 colon. Moreover, the TGI in the assay on KM12 colon was greater than 100 µM.
In the case of `Cc1ccc(C(=O)N/N=C(\N=Nc2ccccc2)c2ccc(N(CCC#N)CCC#N)cc2C)cc1`, the TGI with NCI/ADR-RES ovarian, in the assay with UACC-257 melanoma, in the assay on OVCAR-5 ovarian, with K-562 leukemia, in the assay with SK-OV-3 ovarian and in the assay with SK-MEL-2 melanoma was greater than 100 µM each time. Further, the TGI with SK-MEL-28 melanoma, with MCF7 breast, with MDA-MB-231 breast, in the assay with OVCAR-3 ovarian and in the assay on KM12 colon was greater than 100 µM in each case.
